The target in data set [1] is Mitogen-activated protein kinase 3 (Homo sapiens, UniProt P27361). The data set is described as follows: DRUGMATRIX: Protein Serine/Threonine Kinase, ERK1 enzyme inhibition (substrate: Myelin Basic Protein). Also on record: species or system Escherichia coli. The settings on record: Not Active = under 50% inhibition at 10 µM.
Data set [2] concerns the target T1, Alpha-1D adrenergic receptor (Homo sapiens, UniProt P25100). Also: in other assays of this panel Not Active means under 50% inhibition at 10 µM.
T1 sequence (P25100 whole entry): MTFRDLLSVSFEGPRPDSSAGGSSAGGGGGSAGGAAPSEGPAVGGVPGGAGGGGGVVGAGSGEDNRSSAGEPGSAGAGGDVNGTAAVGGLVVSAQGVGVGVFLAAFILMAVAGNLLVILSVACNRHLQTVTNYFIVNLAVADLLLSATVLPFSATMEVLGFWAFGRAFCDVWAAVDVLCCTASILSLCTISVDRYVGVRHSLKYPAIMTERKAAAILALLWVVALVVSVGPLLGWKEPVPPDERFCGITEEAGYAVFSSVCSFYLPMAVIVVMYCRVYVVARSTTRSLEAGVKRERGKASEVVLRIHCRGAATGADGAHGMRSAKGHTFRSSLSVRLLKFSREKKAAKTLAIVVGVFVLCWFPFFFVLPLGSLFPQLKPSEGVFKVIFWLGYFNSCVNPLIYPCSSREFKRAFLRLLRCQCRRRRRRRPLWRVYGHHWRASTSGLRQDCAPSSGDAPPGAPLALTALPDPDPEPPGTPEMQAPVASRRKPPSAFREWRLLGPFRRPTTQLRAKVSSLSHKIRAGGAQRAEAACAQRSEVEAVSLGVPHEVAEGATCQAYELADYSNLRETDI
The format is cell membranes, HEK293, Membrane. The settings on record: for Ki: read-out: Ki.

For data set [3], the target named is Voltage-gated inwardly rectifying potassium channel KCNH2 (Homo sapiens, UniProt Q12809). The settings on record: hek293. Also: in other assays of this panel Not Active means under 50% inhibition at 10 µM.
A further data set concerns the target Cannabinoid receptor 1 (Homo sapiens, UniProt P21554). The class given is cell membranes, Chem-1, Membrane. Also: in other assays of this panel Not Active means under 50% inhibition at 10 µM.
The target in the next data set is T2, Cathepsin G (Homo sapiens, UniProt P08311).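 Also: inhibition of Cathepsin G enzyme activity, tested on an AMC-conjugated peptide substrate; in other assays of this panel Not Active means under 50% inhibition at 10 µM.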
T2 sequence (P08311 whole entry): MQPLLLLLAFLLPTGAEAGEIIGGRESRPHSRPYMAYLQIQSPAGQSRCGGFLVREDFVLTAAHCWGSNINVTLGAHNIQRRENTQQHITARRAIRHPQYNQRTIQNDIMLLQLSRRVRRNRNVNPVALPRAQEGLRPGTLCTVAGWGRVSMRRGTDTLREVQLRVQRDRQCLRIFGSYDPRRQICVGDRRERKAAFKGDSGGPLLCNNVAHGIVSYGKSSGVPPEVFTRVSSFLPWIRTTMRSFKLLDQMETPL
Kind of data set: biochemical. The format is tissue-based, Neutrophil. The settings on record: neutrophil.

A further data set concerns the target T3, Cytochrome P450 1A2 (Homo sapiens, UniProt P05177). Also: in other assays of this panel Not Active means under 50% inhibition at 10 µM.
T3 sequence (P05177 whole entry): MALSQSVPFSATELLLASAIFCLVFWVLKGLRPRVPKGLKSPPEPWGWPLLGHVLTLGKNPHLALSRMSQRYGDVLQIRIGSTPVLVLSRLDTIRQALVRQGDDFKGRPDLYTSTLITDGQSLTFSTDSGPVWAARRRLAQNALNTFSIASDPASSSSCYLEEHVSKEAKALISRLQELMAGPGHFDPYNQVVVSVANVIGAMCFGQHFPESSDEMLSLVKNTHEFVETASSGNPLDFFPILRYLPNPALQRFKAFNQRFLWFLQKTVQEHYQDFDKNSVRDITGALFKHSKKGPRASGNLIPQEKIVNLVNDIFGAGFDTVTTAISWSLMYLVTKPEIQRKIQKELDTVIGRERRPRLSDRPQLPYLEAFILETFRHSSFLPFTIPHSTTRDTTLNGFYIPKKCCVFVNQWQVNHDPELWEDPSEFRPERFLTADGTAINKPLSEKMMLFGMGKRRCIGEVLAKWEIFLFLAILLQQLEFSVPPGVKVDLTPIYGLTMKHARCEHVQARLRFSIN
The settings on record: bti-tn-5b1-4.

Data set [4] concerns the target Tyrosine-protein kinase Fyn (Homo sapiens, UniProt P06241). Kind of data set: biochemical. The settings on record: insect cells. The format is cell-based, Insect cells.

Sequence of Voltage-gated inwardly rectifying potassium channel KCNH2 (Q12809 whole entry): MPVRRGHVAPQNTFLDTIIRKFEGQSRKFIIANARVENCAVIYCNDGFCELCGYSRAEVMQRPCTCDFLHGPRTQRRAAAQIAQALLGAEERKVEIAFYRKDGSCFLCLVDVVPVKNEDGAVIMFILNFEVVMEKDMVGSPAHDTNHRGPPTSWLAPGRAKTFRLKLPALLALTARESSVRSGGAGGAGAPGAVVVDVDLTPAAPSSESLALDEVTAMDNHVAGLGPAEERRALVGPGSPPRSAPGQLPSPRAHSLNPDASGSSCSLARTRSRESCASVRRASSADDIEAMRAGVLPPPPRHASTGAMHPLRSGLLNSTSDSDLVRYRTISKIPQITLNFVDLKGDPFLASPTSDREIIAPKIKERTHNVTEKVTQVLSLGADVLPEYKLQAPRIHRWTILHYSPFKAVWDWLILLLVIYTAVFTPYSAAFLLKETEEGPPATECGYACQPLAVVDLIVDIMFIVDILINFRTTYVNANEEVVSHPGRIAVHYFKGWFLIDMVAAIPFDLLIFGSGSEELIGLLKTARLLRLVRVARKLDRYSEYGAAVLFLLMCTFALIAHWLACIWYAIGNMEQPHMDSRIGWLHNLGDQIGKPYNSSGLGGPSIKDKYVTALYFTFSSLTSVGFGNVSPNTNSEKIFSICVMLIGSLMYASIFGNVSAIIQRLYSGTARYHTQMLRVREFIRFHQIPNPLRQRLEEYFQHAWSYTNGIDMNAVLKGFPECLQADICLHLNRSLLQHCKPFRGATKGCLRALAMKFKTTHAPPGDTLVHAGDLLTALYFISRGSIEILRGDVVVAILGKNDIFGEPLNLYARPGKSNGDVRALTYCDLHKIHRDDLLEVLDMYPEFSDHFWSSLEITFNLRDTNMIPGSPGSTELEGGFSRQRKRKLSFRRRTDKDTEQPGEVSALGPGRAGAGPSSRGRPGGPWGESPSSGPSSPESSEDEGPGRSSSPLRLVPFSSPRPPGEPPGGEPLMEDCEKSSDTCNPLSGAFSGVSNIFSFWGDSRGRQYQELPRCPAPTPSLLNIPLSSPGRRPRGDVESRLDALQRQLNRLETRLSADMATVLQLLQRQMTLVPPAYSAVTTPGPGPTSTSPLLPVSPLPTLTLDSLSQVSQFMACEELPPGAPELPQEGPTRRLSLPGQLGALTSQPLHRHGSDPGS
Sequence of Mitogen-activated protein kinase 3 (P27361 whole entry): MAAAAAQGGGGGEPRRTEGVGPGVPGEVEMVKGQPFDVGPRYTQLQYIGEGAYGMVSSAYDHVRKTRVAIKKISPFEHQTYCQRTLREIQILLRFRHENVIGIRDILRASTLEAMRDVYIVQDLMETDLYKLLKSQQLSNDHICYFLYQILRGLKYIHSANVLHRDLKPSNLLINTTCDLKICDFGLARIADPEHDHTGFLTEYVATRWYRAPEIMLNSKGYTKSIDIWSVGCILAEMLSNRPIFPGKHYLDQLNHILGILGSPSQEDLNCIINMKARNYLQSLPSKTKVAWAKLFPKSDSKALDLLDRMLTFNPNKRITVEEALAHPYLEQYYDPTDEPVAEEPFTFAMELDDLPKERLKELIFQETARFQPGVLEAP
Sequence of Tyrosine-protein kinase Fyn (P06241 whole entry): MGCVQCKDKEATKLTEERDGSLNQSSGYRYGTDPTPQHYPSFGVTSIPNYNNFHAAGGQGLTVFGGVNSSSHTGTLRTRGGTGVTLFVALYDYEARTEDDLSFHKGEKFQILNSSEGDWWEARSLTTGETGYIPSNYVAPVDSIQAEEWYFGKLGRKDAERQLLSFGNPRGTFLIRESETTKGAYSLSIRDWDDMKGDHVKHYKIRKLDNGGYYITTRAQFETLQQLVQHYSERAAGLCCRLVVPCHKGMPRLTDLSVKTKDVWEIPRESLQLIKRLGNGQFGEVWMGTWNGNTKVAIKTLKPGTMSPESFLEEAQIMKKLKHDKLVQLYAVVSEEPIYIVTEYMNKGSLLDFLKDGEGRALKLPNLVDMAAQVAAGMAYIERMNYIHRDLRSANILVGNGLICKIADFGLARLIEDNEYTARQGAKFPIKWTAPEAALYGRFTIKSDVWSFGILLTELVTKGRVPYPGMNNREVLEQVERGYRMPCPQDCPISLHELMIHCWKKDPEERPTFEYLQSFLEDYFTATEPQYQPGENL
Sequence of Cannabinoid receptor 1 (P21554 whole entry): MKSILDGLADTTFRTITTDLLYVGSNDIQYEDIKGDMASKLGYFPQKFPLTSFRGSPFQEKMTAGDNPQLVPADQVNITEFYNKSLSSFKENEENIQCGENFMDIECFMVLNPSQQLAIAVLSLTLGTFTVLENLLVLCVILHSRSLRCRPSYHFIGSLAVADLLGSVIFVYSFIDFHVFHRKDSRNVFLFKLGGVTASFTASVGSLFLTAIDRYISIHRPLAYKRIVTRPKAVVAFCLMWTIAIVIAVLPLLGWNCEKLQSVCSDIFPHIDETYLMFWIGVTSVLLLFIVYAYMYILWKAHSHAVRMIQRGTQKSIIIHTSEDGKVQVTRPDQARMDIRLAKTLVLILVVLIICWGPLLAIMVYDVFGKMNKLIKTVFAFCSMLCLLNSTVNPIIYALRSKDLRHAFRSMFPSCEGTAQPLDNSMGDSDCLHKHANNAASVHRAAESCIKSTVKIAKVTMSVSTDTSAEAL

As to `CO[C@H]1O[C@@H]2O[C@@]3(C)CC[C@H]4[C@H](C)CC[C@@H]([C@H]1C)[C@@]24OO3`, the half-inhibitory concentration (IC50) result (in data set [1]; in data set [2] (hek293); in data set [3]; against Cannabinoid receptor 1 (chem-1); against Cathepsin G; on Cytochrome P450 1A2) was “Not Active” in each case. For the same compound, the IC50 entry in data set [4] is reported as “Not Active”. The Ki result (in data set [3]; on Cytochrome P450 1A2) was “Not Active” in each case.

On to `CCN1C[C@]2(COC)[C@H](O)C[C@H](OC)[C@@]34[C@@H]5C[C@@]6(O)[C@H](OC(=O)c7ccccc7)[C@@H]5[C@@](OC(C)=O)([C@@H]([C@H](OC)[C@H]23)[C@@H]14)[C@@H](O)[C@@H]6OC` [ACONITINE], for which the half-maximal inhibitory concentration (IC50) entry (in data set [1]; in data set [2] (hek293); on Cannabinoid receptor 1 (chem-1); against Cathepsin G; at Cytochrome P450 1A2; in data set [4]) was “Not Active” in each case. The Ki result at Cytochrome P450 1A2 is “Not Active”.

Turning to `COc1ccccc1OCCNCC(O)COc1cccc2[nH]c3ccccc3c12` (stereo not given) [CARVEDILOL], the IC50 result in data set [1] was “Not Active”; in data set [2] (read-out: IC50), 0.0018 µM; at Cannabinoid receptor 1 (chem-1), “Not Active”; against Cathepsin G it was “Not Active”; at Cytochrome P450 1A2, “Not Active”; in data set [4], “Not Active”. Moreover, the Ki in data set [2] was 0.000883 µM; on Cytochrome P450 1A2 it was “Not Active”.

Turning to `CC[C@H]1OC(=O)[C@H](C)[C@@H](O[C@H]2C[C@@](C)(OC)[C@@H](O)[C@H](C)O2)[C@H](C)[C@@H](O[C@@H]2O[C@H](C)C[C@H](N(C)C)[C@H]2O)[C@](C)(O)C[C@@H](C)C(=O)[C@H](C)[C@@H](O)[C@]1(C)O` [ERYTHROMYCIN], the IC50 entry (in data set [1]; in data set [2] (hek293); on Cannabinoid receptor 1 (chem-1); against Cathepsin G; on Cytochrome P450 1A2; in data set [4]) was “Not Active” throughout. The inhibition constant Ki entry on Cytochrome P450 1A2 was “Not Active”.

As to `NC(N)=Nc1nc(CSCCC(N)=NS(N)(=O)=O)cs1` [FAMOTIDINE], the 50% inhibitory concentration (IC50) entry (in data set [1]; in data set [2] (hek293); against Cannabinoid receptor 1 (chem-1); on Cathepsin G; on Cytochrome P450 1A2; in data set [4]) was “Not Active” in each case. Also, the Ki entry at Cytochrome P450 1A2 is recorded as “Not Active”.

Take `COc1ccc(Cl)cc1C(=O)NCCc1ccc(S(=O)(=O)NC(=O)NC2CCCCC2)cc1` [GLYBURIDE]: the concentration for half-maximal inhibition (IC50) result (in data set [1]; in data set [2] (hek293); against Cannabinoid receptor 1 (chem-1); at Cathepsin G; against Cytochrome P450 1A2; in data set [4]) was “Not Active” in each case. On Cytochrome P450 1A2, the Ki entry was “Not Active”.

In the case of `CCN(CCO)CCCC(C)Nc1ccnc2cc(Cl)ccc12` (stereo not given) [HYDROXYCHLOROQUINE], the IC50 result is “Not Active” in data set [1]; 4.77 µM in data set [2] (read-out: IC50); “Not Active” in data set [3]; “Not Active” against Cannabinoid receptor 1 (chem-1); “Not Active” on Cathepsin G; “Not Active” in data set [4]. Further, the values for the Ki in data set [2] and in data set [3] were 2.35 µM and “Not Active”, respectively.

Regarding `c1ccc2c(c1)Nc1ccccc1S2` [PHENOTHIAZINE], the IC50 entry in data set [1] is “Not Active”; in data set [2] (hek293) it was “Not Active”; in data set [3], “Not Active”; on Cannabinoid receptor 1 (read-out: IC50), 24.9 µM; against Cathepsin G, “Not Active”; in data set [4], “Not Active”. Further, the inhibition constant Ki entry was “Not Active” in data set [3] and 19.6 µM at Cannabinoid receptor 1 (read-out: Ki).

Take `CCN1CCN(C(=O)N[C@@H](C(=O)N[C@@H]2C(=O)N3[C@@H]2SC(C)(C)[C@@H]3C(=O)O)c2ccccc2)C(=O)C1=O` [PIPERACILLIN]: the 50% inhibitory concentration (IC50) result (in data set [1]; in data set [2] (hek293); at Cannabinoid receptor 1 (chem-1); at Cathepsin G; against Cytochrome P450 1A2; in data set [4]) was “Not Active” in each case. Moreover, the Ki entry at Cytochrome P450 1A2 was “Not Active”.

As to `COc1cc(NC(C)CCCN)c2ncccc2c1` (stereo not given) [PRIMAQUINE], the concentration for half-maximal inhibition (IC50) entry (in data set [1]; in data set [2] (hek293); in data set [3]; on Cannabinoid receptor 1 (chem-1); against Cathepsin G; in data set [4]) was “Not Active” in each case. Moreover, the inhibition constant Ki entry in data set [3] is reported as “Not Active”.

The IC50 is the concentration at which inhibition is half-maximal. As a reminder, the Ki is the equilibrium dissociation constant of an inhibitor or competing ligand from its target.

The values above are taken from ChEMBL document CHEMBL1909046, “DrugMatrix in vitro pharmacology data”.
